Test results from patent US8455485B2, “Pyrazolo pyridine derivatives as NADPH oxidase inhibitors” (Genkyotex SA, priority 2008, dated 2013).

Tests used:
Type in all cases: cell-based, human
NOX activity = assay: Amplex Red measurement of extracellular hydrogen peroxide (NOX activity) using DMSO-differentiated HL60 cells; settings: for Inhibition (%) of NOX activity: Amplex red, DMSO-differentiated HL60 cells, compound concentration not stated
Experimental: Human acute myeloid leukemia cell line HL-60 was cultured in RPMI 1640 (Invitrogen) supplemented with 10% heat-inactivated calf serum, 2 mM glutamine, 100 U/mL penicillin (Sigma), and 100 μg streptomycin (Sigma) at 37° C. under a humidified atmosphere of 5% CO2. HL60 differentiation to the neutrophil phenotype was triggered by adding Me2SO (final concentration 1.25% v/v for 6 days) to the culture medium.
Extracellular hydrogen peroxide was measured using Amplex UltraRed (Molecular Probes). Cells were trypsinized (1× Trypsin-EDTA), collected by centrifugation, and resuspended in HBSS supplemented with 1% glucose. Cells were seeded into black 96-well plates at a density of 50′000 cells in 200 μl testing buffer (HBSS 1% glucose containing 0.005 U/mL horseradish peroxidase (Roche) and 50 μM Amplex Red in the presence or absence of compounds according to the invention. As a control, DPI was included at a final concentration of 10 μM The plates were placed in the fluorescent Optima Fluorescent plate reader and kept at 37° C. during 20 min Fluorescence was measured for […] with excitation and emission wavelengths of 544 nm and 590 nm respectively. NOX activities were expressed as % of the activity in control cells. Residual activity of DPI-treated cells was usually <10%.
The Table 2 below summarizes the percentage of inhibition of NOX activity as measured by Amplex red using DMSO-differentiated HL60 cells as described above: […]

NOX activities [1] = assay: H2DCF-DA (DCF fluorescence) ROS measurement in TGF-β stimulated HUVEC
Experimental: HUVEC are cultured in endothelial basal medium supplemented with hydrocortisone (1 μg/mL, CalbioChem), bovine brain extract (12 μg/mL), gentamicin (50 μg/mL, CalbioChem), amphotericin B (50 ng/mL, CalBioChem EGF (10 ng/mL, and 10% FCS until the fourth passage. When the fifth passage was started, cells were cultured with a lower concentration of FCS (2%) in the absence of EGF, if not indicated otherwise. All experiments were done with cells of the fifth passage. The cells were incubated with OxLDL (oxidized low-density lipoprotein) or its buffer as control for 24 h, before detection of O2^− formation.
HUVEC were plated on coverslips and made quiescent overnight in 0.5% BSA before stimulation with TGF-β. Cells were loaded for 10 minutes with 5 μM CM-H2DCFDA in phenol-red-free medium in the dark and then treated with TGF-β (R&D Systems) in the presence or absence of compounds according to the invention. Cells were then visualized by immunofluorescence microscopy after fixation and staining of the nuclei with DAPI or examined live using confocal microscopy. DCF fluorescence was visualized at an excitation wavelength of 488 nm and emission at 515 to 540 nm. […] For calculation, the absorbance at […] was normalized to absorbance at […] for each individual well. […] NOX activities were expressed as % of the activity in control cells. […]

NOX activities [2] = assay: Nitroblue tetrazolium (NBT) test of intracellular and extracellular superoxide in cells; settings: DPI at a final concentration of 10 μM
Experimental: Intracellular and extracellular superoxide was measured by a colorimetric technique using a quantitative nitroblue tetrazolium (NBT) test. SOD-inhibitable conversion of NBT to formazan, a fine blue precipitate, in the presence of superoxide anion was measured using Fluostar Optima spectrometer (BMG labtech). Following incubation with appropriate stimuli, cells were trypsinized (1× Trypsin-EDTA), collected by centrifugation, and washed with PBS to remove medium. 5×10^5 cells were plated on 48-well plates and incubated in Hank's balanced salt solution containing 0.5 mg/mL NBT with or without 800 U/mL SOD in the presence or absence of compounds according to the invention. As a control, DPI was included at a final concentration of 10 μM. After 2.5 h, cells were fixed and washed with methanol to remove non reduced NBT. The reduced formazan was then dissolved in 230 μl of 2M potassium hydroxide and in 280 μl of dimethylsulfoxide. The absorption was measured at 630 nm. For calculation, the absorbance at 630 nm was normalized for each individual well. The mean of the four blank values was subtracted from each corrected value for each time point. NOX activities were expressed as % of the activity in control cells. Residual activity of DPI-treated cells was usually <10%.

NOX activities [3] = assay: Chemiluminescence (luminol) measurement of ROS in cells
Experimental: ROS was measured using the chemiluminescent probe luminol. Cells were cultured and plated as for Amplex Red except that the Amplex Red agent was replaced by 10 μg/mL luminol (Sigma 09235). Light emission was recorded continuously at 37° C. for 60 minutes using the luminescence function of the FluoStar Optima fluorescent plate reader. The mean of the four blank values was subtracted from each corrected value for each time point. NOX activities were expressed as % of the activity in control cells. Residual activity of DPI-treated cells was usually <10%.

Row | Compound | Inhibition (%) of NOX activity (NOX activity) | other results
1 | O=c1c2c(COCc3ccccc3)n(CC3CCCNC3)c(=O)cc2[nH]n1-c1ccccc1Cl (stereo not drawn) [Compound 130, 4-[(benzyloxy)methyl]-2-(2-chlorophenyl)-5-(piperidin-3-ylmethyl)-1H-pyrazolo[4,3-c] pyridine-3,6(2H,5H)-dione] | 80% | 
2 | Cn1c(COCc2cccc(Cl)c2)c2c(=O)n(-c3ccccc3Cl)[nH]c2cc1=O [Compound 139, 4-{[(3-chlorobenzyl)oxy]methyl}-2-(2-chlorophenyl)-5-methyl-1H-pyrazolo[4,3-c] pyridine-3,6(2H,5H)-dione] | 76% | 
3 | COc1cccc(CN(C)Cc2c3c(=O)n(-c4ccccc4Cl)[nH]c3cc(=O)n2C)c1 [Compound 143, 2-(2-chlorophenyl)-4-{[(3-methoxybenzyl) (methyl)amino]methyl}-5-methyl-1H-pyrazolo [4,3-c]pyridine-3,6 (2H,5H)-dione] | 82% | 
4 | CN(Cc1cccnc1)Cc1c2c(=O)n(-c3ccccc3Cl)[nH]c2cc(=O)n1C [Compound 147, 2-(2-chlorophenyl)-5-methyl-4-{[methyl (pyridin-3-ylmethyl)amino]methyl}-1H-pyrazolo[4,3-c] pyridine-3,6(2H,5H)-dione] | 80% | 
5 | COc1cccc(N2CCN(Cc3c4c(=O)n(-c5ccccc5Cl)[nH]c4cc(=O)n3C)CC2)c1 [Compound 163, 2-(2-chlorophenyl)-4-{[4-(3-methoxyphenyl)piperazin-1-yl]methyl}-5-methyl-1H-pyrazolo[4,3-c]pyridine-3,6(2H,5H)-dione] | 80% | 
6 | c1ccc([I+]c2ccccc2)cc1 [DPI, Diphenyl-iodonium] |  | Residual activity of DPI-treated cells (NOX activity as % of the activity in control cells) (NOX activities [1]): < 10%; Residual activity of DPI-treated cells (NOX activity as % of the activity in control cells) (NOX activities [2]): < 10%; Residual activity of DPI-treated cells (NOX activity as % of the activity in control cells) (NOX activity; Amplex Red, DPI at a final concentration of 10 μM): < 10%; Residual activity of DPI-treated cells (NOX activity as % of the activity in control cells) (NOX activities [3]): < 10%
